Values after ≈ are worked out from the molar mass of the structure shown.
Experiments:
A549 = test: Cytotoxicity against human A549 cells after 72 hrs by MTT assay; format: functional, cell-based; details: A549, 72 h
Vero = test: Cytotoxicity against African green monkey Vero cells after 72 hrs by MTT assay; format: ADME, cell-based; details: Chlorocebus sabaeus
[1] = Selectivity index, ratio of IC50 for African green monkey Vero cells to IC50 for human A549 cells; format: functional
KB [2] = test: Cytotoxicity against human KB cells after 72 hrs by resazurin based fluorescence assay; format: functional, cell-based
KB [3] = test: Cytotoxicity against human KB cells at 10 uM after 72 hrs by resazurin based fluorescence assay relative to control; format: functional
NCI-H187 [4] = test: Cytotoxicity against human NCI-H187 cells after 72 hrs by resazurin based fluorescence assay; format: functional, cell-based; details: NCI-H187, 72 h
NCI-H187 [5] = test: Cytotoxicity against human NCI-H187 cells at 10 uM after 72 hrs by resazurin based fluorescence assay; format: functional
MCF7 [6] = test: Cytotoxicity against human MCF7 cells at 10 uM after 72 hrs by resazurin based fluorescence assay; format: functional
[7] = Solubility of the compound in PBS at pH 7.4 by HPLC-UV analysis; format: physicochemical
[8] = 1-octanol/water partition co-efficient, log D of the compound in PBS at pH 7.4 after 6 hrs by HPLC-UV based shake-flask method; format: physicochemical; details: 1-octanol/PBS
MCF7 [9] = test: cells; details: Homo sapiens, MCF7, 72 h
Description: Cytotoxicity against human MCF7 cells after 72 hrs by resazurin based fluorescence assay

[10] = target: Cyclin-dependent kinase 5 (Homo sapiens, UniProt Q00535); test: Inhibition of human CDK5
KB [11] = test: Cytotoxicity against human KB cells at 10 ug/ml after 72 hrs by resazurin based fluorescence assay relative to control; format: functional
NCI-H187 [12] = test: Cytotoxicity against human NCI-H187 cells at 10 ug/ml after 72 hrs by resazurin based fluorescence assay; format: functional

Chain of Cyclin-dependent kinase 5 (Q00535 whole entry): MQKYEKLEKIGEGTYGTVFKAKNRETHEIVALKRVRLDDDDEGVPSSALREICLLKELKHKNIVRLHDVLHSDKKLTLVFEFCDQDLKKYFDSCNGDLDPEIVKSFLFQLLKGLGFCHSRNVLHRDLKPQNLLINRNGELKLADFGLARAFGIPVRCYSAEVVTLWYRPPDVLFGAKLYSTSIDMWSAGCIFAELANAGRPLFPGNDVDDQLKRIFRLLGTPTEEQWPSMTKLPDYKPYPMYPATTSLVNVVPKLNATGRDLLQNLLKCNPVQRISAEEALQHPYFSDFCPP

solubility [7] [µM]	logD at 6 h [8]	IC50 (MCF7 [9]) [µM]	IC50 [10] [µM]	Compound	IC50 (A549) [µM]	IC50 (Vero) [µM]	Ratio IC50 [1]	IC50 (KB [2]) [µM]	Activity (KB [3]) [%]	IC50 (NCI-H187 [4]) [µM]	Activity (NCI-H187 [5]) [%]	Activity (MCF7 [6]) [%]	Activity (KB [11]) [%]	Activity (NCI-H187 [12]) [%]
–	–	–	–	COc1ccc(-c2ccnc(Nc3ccc(S(N)(=O)=O)cc3)n2)cc1	4.4	2.4	0	–	–	–	–	–	–	–
38.4 (≈ 13.7 µg/mL)	2.7	5.95	–	COc1ccc(-c2ccnc(Nc3cccc(S(N)(=O)=O)c3)n2)cc1	1.6	1.1	0	1.29	76.3	2.08	82.3	63.3	–	–
< 0.5	3.2	–	–	COc1ccc(-c2ccnc(Nc3cccc(NS(C)(=O)=O)c3)n2)cc1	0.2	0.9	4.5	–	43.7	5.35	84.8	41	–	–
–	–	–	–	Cc1csc(-c2ccnc(Nc3ccc(C(N)=O)cc3)n2)c1	30	6.2	0	–	–	–	–	–	–	–
–	–	–	–	CS(=O)(=O)c1ccc(-c2ccnc(Nc3cccc(C(N)=O)c3)n2)cc1	> 100	37.9	0	–	–	–	–	–	–	–
–	–	–	–	COc1ccc(-c2ccnc(Nc3ccc4nc[nH]c4c3)n2)cc1	13.9	14.8	1.1	–	–	–	–	–	–	–
–	–	–	–	CC(=O)Nc1ccc(-c2ccnc(Nc3cccc(C(N)=O)c3)n2)cc1	33	> 100	>3	–	–	–	–	–	–	–
12.1 (≈ 3.89 µg/mL)	1.2	–	–	COc1ccc(-c2ccnc(Nc3ccc(C(=O)O)cc3)n2)cc1	20.3	> 100	>4.9	–	0	–	23.5	0	–	–
–	–	–	–	CC(=O)Nc1ccc(-c2ccnc(Nc3cccc(S(N)(=O)=O)c3)n2)cc1	6.6	8.7	1.3	–	–	–	–	–	–	–
4.1 (≈ 1.31 µg/mL)	3.1	–	–	COc1ccc(-c2ccnc(Nc3cccc(C(N)=O)c3)n2)cc1	6.7	2.7	0	–	0	–	18.6	0	–	–
–	–	–	–	Cc1csc(-c2ccnc(Nc3cc([N+](=O)[O-])ccc3O)n2)c1	> 100	> 100	0	–	–	–	–	–	–	–
6.9 (≈ 2.31 µg/mL)	2.9	–	–	COC(=O)c1ccc(Nc2nccc(-c3ccc(OC)cc3)n2)cc1	6	4.5	0	–	0	–	23.8	0	–	–
–	–	–	–	Cc1csc(-c2ccnc(Nc3ccc(C(=O)O)cc3)n2)c1	18.2	80.8	4.4	–	–	–	–	–	–	–
< 0.6	3	1.5	–	COc1cccc(-c2ccnc(Nc3cccc(S(N)(=O)=O)c3)n2)c1	2.6	1.1	0	3.56	94.9	1.34	96.6	63.8	–	–
–	–	–	81	COc1ccc(-c2ccnc(Nc3cccc(N)c3)n2)cc1	–	–	–	–	–	–	–	–	–	–
3.4 (≈ 1.11 µg/mL)	2.9	–	–	NS(=O)(=O)c1cccc(Nc2nccc(-c3ccccc3)n2)c1	0.2	0.8	4	2.44	93.6	1.18	99.8	0	–	–
–	–	–	–	CS(=O)(=O)c1ccc(-c2ccnc(Nc3cccc(S(N)(=O)=O)c3)n2)cc1	> 100	> 100	0	–	–	–	–	–	–	–
< 0.6	2.8	–	–	COc1ccc(-c2ccnc(Nc3ccc(C(N)=O)cc3)n2)cc1	5.3	5.4	0	–	0	–	28.1	1.9	–	–
–	–	–	–	Cc1csc(-c2ccnc(Nc3cccc(C(N)=O)c3)n2)c1	> 100	> 100	0	–	–	–	–	–	–	–
–	–	–	–	COc1ccc(-c2ccnc(Nc3ccc4cn[nH]c4c3)n2)cc1	65.1	7.9	0	–	–	–	–	–	–	–
–	–	–	–	COc1cccc2c1C(=O)c1c(O)c3c(c(O)c1C2=O)C[C@@](O)(C(=O)CO)C[C@@H]3O[C@H]1C[C@H](N)[C@H](O)[C@H](C)O1 [DOXORUBICIN]	0.4	1.4	–	1.35	–	0.06	–	–	99.7	96.98
–	–	–	–	Cc1c2ccncc2c(C)c2c1[nH]c1ccccc12 [ELLIPTECINE]	–	–	–	2.81	–	0.95	–	–	96.3	99.24
–	–	7.94	–	CC/C(=C(\c1ccccc1)c1ccc(OCCN(C)C)cc1)c1ccccc1 [TAMOXIFEN]	–	–	–	–	–	–	–	–	–	–

From ChEMBL document CHEMBL4043240, “Synthesis and evaluation of the NSCLC anti-cancer activity and physical properties of 4-aryl-N-phenylpyrimidin-2-amines” (Bioorg Med Chem Lett, 2017)
